System: human colon cancer cell line (HCT116)
Experiment: Example 4: THP-1-mediated phagocytic activity, anti-CAPRIN-1, anti-CD20 or anti-HER-2 antibody alone or with olaparib
Assay type: cell-based
Settings: 1×10^4 HCT116 cocultured 1 hour with 1×10^5 THP-1, antibody final concentration 1 μg/mL (1 μM); for combination HCT116 cultured 2 days with olaparib 20 μM beforehand; N=3
Experimental: The human-derived cancer cell used was a colon cancer cell line HCT116.
Each cancer cell line after the culture was dissociated with TrypLE Express (Thermo), and the cancer cells were stained by the addition of calcein-AM at a final concentration of 0.04 μg/mL and incubation at 37° C. for 10 minutes. […] Further, dead cells were stained with propidium iodide (PI) (final concentration: 0.1 μg/mL), followed by the measurement of fluorescence from the cells by flow cytometry. PI-positive dead cells were excluded from analysis. The human monocytic cells THP-1 recognize an antibody bound onto cancer cells and phagocytize the cancer cells. At that time, if the cancer cells have been stained with calcein-AM, the monocytic cells ingesting the cancer cells by phagocytosis also become positive to calcein-AM. Thus, the phagocytic activity in this evaluation system was calculated as the ratio (%) of APC-positive/calcein-AM-positive cells to the whole calcein-AM-positive population.

Question: For “anti-CD20 antibody: anti-CD20 antibody (“Rituxan”) purchased from Chugai Pharmaceutical Co., Ltd.”, which “phagocytic activity against cancer cells” value is on record?
Answer: ≤ 7%

From patent US20260115285A1, “MEDICAMENT FOR TREATMENT AND/OR PREVENTION OF CANCER” (TORAY INDUSTRIES, INC., priority 2022, published 2026)
